The record followed here is the supplement of paper PMC12076712.

Bounds are passed on as bounds.

Assay in all cases: pIC50, kinobeads binding competition
The target in one assay is T1, ACVR1 (UniProt Q04771).
T1 sequence (whole entry): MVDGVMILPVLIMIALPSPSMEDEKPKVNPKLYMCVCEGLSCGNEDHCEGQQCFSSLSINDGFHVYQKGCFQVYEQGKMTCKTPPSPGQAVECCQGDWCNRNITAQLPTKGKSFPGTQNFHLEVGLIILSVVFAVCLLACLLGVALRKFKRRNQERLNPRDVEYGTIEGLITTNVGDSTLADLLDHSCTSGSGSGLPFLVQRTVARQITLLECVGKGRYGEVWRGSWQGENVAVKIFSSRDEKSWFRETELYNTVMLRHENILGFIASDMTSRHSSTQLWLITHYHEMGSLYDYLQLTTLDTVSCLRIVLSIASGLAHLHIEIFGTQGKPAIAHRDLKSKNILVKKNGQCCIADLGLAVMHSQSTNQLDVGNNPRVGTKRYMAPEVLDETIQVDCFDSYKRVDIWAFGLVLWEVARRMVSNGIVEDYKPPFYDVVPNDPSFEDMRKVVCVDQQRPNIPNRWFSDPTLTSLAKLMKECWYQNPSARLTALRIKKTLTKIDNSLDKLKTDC
Put shortly:
(§1)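 pIC50 was obtained by fitting fold changes against vehicle to logistic dose-response curves with the R drc package, using biological duplicates. Kinobeads-bound proteins were digested and measured by TMT10 LC-MS/MS. Before this, either living Jurkat cells received nine compound concentrations (top 30 μM, 1:4 steps) for 60 min at 37 °C prior to lysis, or Jurkat lysate or a 1:1:1:1 HEK293/K-562/HepG2/placenta lysate mix received nine concentrations (top 30 μM, 1:5 steps) for 60 min at 4 °C.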

Another assay concerns the target CAMKK2 (UniProt Q96RR4). Put shortly:
as §1

In the next assay the target is EPHA7 (UniProt Q15375). The note with it: cell material: Lysate mix. The essentials: as §1
Chain of EPHA7 (Q15375 whole entry, looked up): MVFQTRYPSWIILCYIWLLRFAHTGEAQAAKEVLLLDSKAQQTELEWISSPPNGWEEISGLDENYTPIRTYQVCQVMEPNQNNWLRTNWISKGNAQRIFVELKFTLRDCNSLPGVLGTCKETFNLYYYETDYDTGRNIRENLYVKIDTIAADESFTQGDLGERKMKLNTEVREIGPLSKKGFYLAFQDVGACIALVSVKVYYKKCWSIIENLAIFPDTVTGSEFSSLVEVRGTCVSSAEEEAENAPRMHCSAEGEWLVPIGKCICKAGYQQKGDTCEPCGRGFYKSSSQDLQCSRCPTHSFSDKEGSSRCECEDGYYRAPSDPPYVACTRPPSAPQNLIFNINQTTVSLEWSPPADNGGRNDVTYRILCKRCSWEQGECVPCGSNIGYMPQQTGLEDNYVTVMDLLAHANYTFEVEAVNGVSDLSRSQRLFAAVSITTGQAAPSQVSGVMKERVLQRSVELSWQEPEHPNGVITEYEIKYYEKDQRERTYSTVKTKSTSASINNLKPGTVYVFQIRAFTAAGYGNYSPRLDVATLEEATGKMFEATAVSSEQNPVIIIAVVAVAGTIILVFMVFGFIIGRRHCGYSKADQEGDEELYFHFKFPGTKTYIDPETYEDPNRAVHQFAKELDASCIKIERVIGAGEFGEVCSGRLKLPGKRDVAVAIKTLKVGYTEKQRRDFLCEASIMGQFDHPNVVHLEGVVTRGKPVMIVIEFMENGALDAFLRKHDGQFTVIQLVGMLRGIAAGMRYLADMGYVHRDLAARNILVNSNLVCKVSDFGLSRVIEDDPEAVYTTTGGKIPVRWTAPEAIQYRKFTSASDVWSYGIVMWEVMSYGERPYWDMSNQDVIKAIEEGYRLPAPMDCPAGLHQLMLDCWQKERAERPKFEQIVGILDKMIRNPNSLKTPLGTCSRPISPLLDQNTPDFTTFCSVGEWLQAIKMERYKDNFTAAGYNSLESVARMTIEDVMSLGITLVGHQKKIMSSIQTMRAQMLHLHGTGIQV
Another assay deals with Fyn (UniProt P06241). Put shortly:
as §1

Another assay concerns the target LCK (UniProt P06239). Put shortly:
as §1

The next assay concerns the target T2, TAOK2 (UniProt Q9UL54).
T2 sequence (whole entry): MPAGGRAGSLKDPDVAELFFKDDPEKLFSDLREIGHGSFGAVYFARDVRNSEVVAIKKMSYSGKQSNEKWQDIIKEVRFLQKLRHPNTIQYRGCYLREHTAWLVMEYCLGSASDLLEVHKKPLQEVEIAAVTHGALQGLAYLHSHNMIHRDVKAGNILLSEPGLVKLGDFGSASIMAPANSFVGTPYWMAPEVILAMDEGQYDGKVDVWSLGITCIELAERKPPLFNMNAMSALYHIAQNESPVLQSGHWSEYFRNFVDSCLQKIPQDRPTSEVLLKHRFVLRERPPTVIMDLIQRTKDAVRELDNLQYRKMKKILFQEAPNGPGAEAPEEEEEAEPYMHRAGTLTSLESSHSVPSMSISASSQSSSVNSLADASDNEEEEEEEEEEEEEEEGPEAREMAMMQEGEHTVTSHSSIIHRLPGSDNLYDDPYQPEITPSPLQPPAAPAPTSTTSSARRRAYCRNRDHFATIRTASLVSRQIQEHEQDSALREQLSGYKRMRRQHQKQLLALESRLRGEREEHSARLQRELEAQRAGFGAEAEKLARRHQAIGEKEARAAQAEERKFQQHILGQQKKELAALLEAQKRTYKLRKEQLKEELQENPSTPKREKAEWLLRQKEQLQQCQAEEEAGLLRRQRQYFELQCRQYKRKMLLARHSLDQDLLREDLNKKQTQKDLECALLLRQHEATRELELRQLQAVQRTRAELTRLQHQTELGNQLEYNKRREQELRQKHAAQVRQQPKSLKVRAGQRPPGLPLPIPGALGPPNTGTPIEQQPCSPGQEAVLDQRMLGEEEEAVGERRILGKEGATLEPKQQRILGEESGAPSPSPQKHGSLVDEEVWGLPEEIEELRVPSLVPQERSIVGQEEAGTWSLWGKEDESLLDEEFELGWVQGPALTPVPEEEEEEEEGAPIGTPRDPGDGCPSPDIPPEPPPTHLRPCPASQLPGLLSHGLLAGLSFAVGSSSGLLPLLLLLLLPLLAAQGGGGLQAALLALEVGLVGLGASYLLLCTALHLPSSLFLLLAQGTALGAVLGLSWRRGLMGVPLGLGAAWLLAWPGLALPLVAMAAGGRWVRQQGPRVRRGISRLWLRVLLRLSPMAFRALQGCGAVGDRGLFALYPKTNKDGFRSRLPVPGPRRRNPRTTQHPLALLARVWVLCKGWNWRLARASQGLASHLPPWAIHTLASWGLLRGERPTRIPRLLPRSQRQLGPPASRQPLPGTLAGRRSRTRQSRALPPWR
Put shortly: as §1

Another assay concerns the target T3, UniProt P25098.
T3 sequence (whole entry): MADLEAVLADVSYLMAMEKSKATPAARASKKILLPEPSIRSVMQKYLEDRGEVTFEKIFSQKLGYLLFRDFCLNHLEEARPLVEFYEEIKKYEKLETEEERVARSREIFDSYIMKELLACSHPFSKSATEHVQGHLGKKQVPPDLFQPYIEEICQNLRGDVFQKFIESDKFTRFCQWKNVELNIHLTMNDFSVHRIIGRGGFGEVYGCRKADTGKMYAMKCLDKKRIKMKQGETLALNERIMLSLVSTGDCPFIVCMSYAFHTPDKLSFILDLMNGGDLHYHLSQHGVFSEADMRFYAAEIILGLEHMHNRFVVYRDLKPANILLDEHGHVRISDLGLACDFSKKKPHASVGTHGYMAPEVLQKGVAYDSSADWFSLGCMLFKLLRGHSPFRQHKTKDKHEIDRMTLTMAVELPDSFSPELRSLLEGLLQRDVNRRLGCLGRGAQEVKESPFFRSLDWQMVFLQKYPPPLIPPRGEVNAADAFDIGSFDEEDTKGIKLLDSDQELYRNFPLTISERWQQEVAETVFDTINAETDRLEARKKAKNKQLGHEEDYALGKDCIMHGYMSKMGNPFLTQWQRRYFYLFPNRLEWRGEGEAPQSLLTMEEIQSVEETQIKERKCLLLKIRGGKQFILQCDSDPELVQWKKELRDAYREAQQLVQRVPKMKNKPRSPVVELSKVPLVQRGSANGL
Put shortly: as §1

The target in another assay is UniProt Q5VT25. Put shortly:
as §1

Chain of Fyn (P06241 whole entry, looked up): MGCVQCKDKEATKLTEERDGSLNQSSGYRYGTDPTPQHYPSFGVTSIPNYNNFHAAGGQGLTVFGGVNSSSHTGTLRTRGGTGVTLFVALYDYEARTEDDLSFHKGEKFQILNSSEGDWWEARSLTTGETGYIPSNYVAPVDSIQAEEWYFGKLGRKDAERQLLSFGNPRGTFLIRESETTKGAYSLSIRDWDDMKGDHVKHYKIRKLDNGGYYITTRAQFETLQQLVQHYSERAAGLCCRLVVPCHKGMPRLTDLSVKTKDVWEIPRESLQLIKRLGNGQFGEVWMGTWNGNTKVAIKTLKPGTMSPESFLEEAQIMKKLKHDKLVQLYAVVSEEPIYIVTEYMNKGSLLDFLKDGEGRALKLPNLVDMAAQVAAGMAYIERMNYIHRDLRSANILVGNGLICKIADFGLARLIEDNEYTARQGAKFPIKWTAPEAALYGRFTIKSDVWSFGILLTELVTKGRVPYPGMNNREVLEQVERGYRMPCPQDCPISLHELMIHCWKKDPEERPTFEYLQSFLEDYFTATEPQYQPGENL
Chain of UniProt Q5VT25 (Q5VT25 whole entry): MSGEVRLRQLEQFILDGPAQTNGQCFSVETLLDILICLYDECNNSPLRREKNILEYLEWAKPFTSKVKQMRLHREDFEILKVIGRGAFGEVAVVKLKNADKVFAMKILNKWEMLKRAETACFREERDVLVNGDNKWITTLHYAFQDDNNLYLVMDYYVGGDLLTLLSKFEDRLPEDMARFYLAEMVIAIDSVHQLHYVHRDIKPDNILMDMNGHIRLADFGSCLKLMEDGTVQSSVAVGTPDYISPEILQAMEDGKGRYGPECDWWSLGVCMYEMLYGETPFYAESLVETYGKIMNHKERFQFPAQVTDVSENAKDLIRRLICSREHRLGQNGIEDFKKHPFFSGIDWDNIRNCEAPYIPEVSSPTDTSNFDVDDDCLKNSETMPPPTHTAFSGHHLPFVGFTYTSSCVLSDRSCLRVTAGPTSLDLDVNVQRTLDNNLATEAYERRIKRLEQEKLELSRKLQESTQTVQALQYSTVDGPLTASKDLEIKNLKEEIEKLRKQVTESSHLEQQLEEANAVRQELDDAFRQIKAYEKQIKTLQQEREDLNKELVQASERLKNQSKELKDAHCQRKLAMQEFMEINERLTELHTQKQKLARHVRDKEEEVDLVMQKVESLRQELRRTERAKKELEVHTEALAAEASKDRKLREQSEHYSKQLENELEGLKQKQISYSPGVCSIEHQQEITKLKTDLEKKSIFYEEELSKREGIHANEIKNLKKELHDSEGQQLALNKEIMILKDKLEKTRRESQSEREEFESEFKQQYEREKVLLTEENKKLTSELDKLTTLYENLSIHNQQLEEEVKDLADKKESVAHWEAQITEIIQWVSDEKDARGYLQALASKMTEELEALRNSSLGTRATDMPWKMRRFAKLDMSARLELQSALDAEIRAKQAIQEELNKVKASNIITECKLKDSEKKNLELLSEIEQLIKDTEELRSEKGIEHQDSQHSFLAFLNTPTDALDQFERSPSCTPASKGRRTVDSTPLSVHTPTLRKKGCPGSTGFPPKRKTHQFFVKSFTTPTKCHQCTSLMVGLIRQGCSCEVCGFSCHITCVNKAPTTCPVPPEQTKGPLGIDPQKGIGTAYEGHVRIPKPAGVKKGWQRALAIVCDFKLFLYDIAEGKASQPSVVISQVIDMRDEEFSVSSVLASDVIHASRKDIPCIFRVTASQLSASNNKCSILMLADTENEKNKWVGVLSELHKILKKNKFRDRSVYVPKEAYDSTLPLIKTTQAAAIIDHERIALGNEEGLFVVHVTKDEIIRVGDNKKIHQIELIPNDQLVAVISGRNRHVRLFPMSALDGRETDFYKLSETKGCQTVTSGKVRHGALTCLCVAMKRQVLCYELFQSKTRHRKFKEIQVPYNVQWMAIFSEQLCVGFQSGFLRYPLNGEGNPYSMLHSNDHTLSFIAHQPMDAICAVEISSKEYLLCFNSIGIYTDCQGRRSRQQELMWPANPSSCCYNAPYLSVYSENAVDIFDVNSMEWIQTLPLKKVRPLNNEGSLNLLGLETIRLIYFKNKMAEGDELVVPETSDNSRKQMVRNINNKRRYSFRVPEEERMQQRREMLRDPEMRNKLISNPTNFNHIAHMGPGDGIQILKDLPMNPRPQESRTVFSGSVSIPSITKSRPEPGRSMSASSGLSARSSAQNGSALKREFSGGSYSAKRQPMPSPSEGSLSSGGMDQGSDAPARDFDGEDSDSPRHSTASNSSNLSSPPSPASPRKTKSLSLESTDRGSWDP
Chain of CAMKK2 (Q96RR4 whole entry, looked up): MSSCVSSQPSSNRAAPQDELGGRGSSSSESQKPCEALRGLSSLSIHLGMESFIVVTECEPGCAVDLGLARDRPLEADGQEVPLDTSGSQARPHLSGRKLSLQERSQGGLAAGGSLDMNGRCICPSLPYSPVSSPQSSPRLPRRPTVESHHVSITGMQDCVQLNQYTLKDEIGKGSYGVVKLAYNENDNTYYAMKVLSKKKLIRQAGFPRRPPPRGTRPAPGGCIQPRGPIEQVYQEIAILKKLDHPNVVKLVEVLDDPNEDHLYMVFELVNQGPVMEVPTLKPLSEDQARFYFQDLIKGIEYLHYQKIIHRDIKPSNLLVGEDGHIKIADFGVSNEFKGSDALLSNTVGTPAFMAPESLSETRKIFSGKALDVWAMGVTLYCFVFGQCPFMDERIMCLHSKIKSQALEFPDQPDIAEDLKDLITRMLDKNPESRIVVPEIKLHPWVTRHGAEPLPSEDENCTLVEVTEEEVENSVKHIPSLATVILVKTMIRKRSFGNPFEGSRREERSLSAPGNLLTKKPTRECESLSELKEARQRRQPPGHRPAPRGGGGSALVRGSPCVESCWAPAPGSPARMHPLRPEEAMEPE
Chain of LCK (P06239 whole entry, looked up): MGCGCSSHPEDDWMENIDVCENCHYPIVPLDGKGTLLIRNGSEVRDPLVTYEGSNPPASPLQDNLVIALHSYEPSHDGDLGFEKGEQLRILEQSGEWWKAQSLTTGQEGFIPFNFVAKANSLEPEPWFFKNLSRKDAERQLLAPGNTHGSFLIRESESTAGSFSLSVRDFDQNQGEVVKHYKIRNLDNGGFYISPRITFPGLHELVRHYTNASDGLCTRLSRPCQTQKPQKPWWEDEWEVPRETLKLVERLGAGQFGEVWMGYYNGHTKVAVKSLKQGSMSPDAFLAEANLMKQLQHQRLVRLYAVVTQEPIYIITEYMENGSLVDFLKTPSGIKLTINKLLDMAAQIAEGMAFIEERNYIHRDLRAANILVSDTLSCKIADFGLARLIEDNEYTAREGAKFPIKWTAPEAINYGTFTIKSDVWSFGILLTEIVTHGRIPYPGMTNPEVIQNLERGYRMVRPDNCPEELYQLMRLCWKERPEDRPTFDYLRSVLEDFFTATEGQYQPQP

Consider `O=C(NCCNC(=O)c1cc(Nc2cc(C3CC3)[nH]n2)nc(N2CCN(Cc3ccc(S(=O)(=O)F)cc3)CC2)n1)OC1CC/C=C/CCC1` (configuration not stated), for which the pIC50 (commonly the IC50 on a negative log10 scale, so that one unit is a factor of ten) was 4.68 on ACVR1 (cell material: Jurkat cells); less than 4.52 at ACVR1 (cell material: Jurkat lysate); less than 4.52 at ACVR1 (cell material: Lysate mix); 6.18 on CAMKK2 (cell material: Jurkat cells); 5.1 on CAMKK2 (cell material: Jurkat lysate); 5 on CAMKK2 (cell material: Lysate mix). The pIC50 at EPHA7 is less than 4.52; on Fyn (cell material: Jurkat cells) it was 5.1; on Fyn (cell material: Jurkat lysate) it was less than 4.52; on Fyn (cell material: Lysate mix), less than 4.52; on LCK (cell material: Jurkat cells) it was 5.67; on LCK (cell material: Jurkat lysate) it was less than 4.52. Besides, the pIC50 was 5.96 at TAOK2 (cell material: Jurkat cells); 5.08 at TAOK2 (cell material: Jurkat lysate); 5.33 on TAOK2 (cell material: Lysate mix); 5 at UniProt P25098 (cell material: Jurkat cells); less than 4.52 on UniProt P25098 (cell material: Jurkat lysate); less than 4.52 at UniProt P25098 (cell material: Lysate mix). In addition, the pIC50 at UniProt Q5VT25 (cell material: Jurkat cells), at UniProt Q5VT25 (cell material: Jurkat lysate) and on UniProt Q5VT25 (cell material: Lysate mix) was less than 4.52 each time.
On to `Cc1cc(Nc2cc(C(=O)NCCNC(=O)OC3CC/C=C/CCC3)nc(N3CCN(Cc4ccc(S(=O)(=O)F)cc4)CC3)n2)n[nH]1` (configuration not stated), for which the pIC50 at ACVR1 (cell material: Lysate mix) is less than 4.52; at CAMKK2 (cell material: Lysate mix), less than 4.52; at EPHA7 it was less than 4.52; at Fyn (cell material: Lysate mix), 4.58; on LCK (cell material: Lysate mix), less than 4.52; at TAOK2 (cell material: Lysate mix), 5.15. Besides, the pIC50 on UniProt P25098 (cell material: Lysate mix) and on UniProt Q5VT25 (cell material: Lysate mix) was less than 4.52 in each case.
With `CCNC(=O)c1cc(Nc2cc(C)[nH]n2)nc(N2CCN(Cc3ccc(S(=O)(=O)F)cc3)CC2)n1`, the pIC50 was less than 4.52 on ACVR1 (cell material: Lysate mix); less than 4.52 on CAMKK2 (cell material: Lysate mix); less than 4.52 on EPHA7; 6.74 at Fyn (cell material: Lysate mix); 5.72 at LCK (cell material: Lysate mix); less than 4.52 at TAOK2 (cell material: Lysate mix). The pIC50 at UniProt P25098 (cell material: Lysate mix) and on UniProt Q5VT25 (cell material: Lysate mix) was less than 4.52 throughout.
For `C#CCNC(=O)c1cc(Nc2cc(C3CC3)[nH]n2)nc(N2CCN(Cc3ccc(S(=O)(=O)F)cc3)CC2)n1`, the pIC50 amounted to 5.78 at ACVR1 (cell material: Jurkat cells); 4.66 on ACVR1 (cell material: Jurkat lysate); 5.14 on ACVR1 (cell material: Lysate mix); 5.88 at CAMKK2 (cell material: Jurkat cells); 5.7 on CAMKK2 (cell material: Jurkat lysate); 5.88 on CAMKK2 (cell material: Lysate mix). For the same molecule, the pIC50 is less than 4.52 on EPHA7; 5.9 at Fyn (cell material: Jurkat cells); 5.9 at Fyn (cell material: Lysate mix); 6.47 on LCK (cell material: Jurkat cells); 5.64 at LCK (cell material: Jurkat lysate); 6.07 at LCK (cell material: Lysate mix). In addition, the pIC50 at TAOK2 (cell material: Jurkat lysate) is less than 4.52; at TAOK2 (cell material: Lysate mix) it was less than 4.52; on UniProt P25098 (cell material: Jurkat cells), 5.69; on UniProt P25098 (cell material: Jurkat lysate), less than 4.52; at UniProt Q5VT25 (cell material: Jurkat cells), 5.28; on UniProt Q5VT25 (cell material: Jurkat lysate), less than 4.52. For the same molecule, the pIC50 at UniProt Q5VT25 (cell material: Lysate mix) was less than 4.52.
Turning to `C#CCNC(=O)c1cc(Nc2cc(C)[nH]n2)nc(N2CCN(Cc3ccc(S(=O)(=O)F)cc3)CC2)n1`, the pIC50 was less than 4.52 at ACVR1 (cell material: Lysate mix); less than 4.52 at CAMKK2 (cell material: Lysate mix); less than 4.52 on EPHA7; 5.93 on Fyn (cell material: Lysate mix); 5.66 on LCK (cell material: Lysate mix); less than 4.52 at TAOK2 (cell material: Lysate mix). The pIC50 on UniProt P25098 (cell material: Lysate mix) and at UniProt Q5VT25 (cell material: Lysate mix) was less than 4.52 in each case.
For `CCNC(=O)c1cc(Nc2cc(C3CC3)[nH]n2)nc(N2CCN(Cc3ccc(S(=O)(=O)F)cc3)CC2)n1`, the pIC50 was 4.74 at ACVR1 (cell material: Lysate mix); 5.6 at CAMKK2 (cell material: Lysate mix); less than 4.52 at EPHA7; 5.81 at Fyn (cell material: Lysate mix); 5.89 at LCK (cell material: Lysate mix); less than 4.52 at TAOK2 (cell material: Lysate mix). Also, the pIC50 on UniProt P25098 (cell material: Lysate mix) and at UniProt Q5VT25 (cell material: Lysate mix) was less than 4.52 each time.
